Tests used:
TMD8 DLBCL xenografts = assay: Antitumor activity in CB17 SCID mice bearing TMD8 DLBCL xenografts, bendamustine combination (Example 3); assay type: in vivo, mouse; conditions: bendamustine 1 mg/kg IV BIW, alone or combined, Day 14
Ly19 xenografts = assay: Antitumor activity in SCID mice bearing Ly19 xenografts, bendamustine combination (Example 4); assay type: in vivo, mouse; conditions: for Mean Tumor Volume (mm^3) ± SEM at Day 14 / TGI (%): Day 14; for dAUC: vs vehicle
[1] = test system: OCI-Ly10 human DLBCL xenografts; assay: Antitumor activity in SCID mice bearing OCI-Ly10 human DLBCL xenografts, ibrutinib or bendamustine combination (Example 5); assay type: in vivo, mouse; conditions: Day 21, Compound A 60 mg/kg PO QD, ibrutinib 6 mg/kg PO QD, bendamustine 1 mg/kg IV BIW (6 doses), alone or combined with Compound A
[2] = test system: OCI-Ly10 human lymphoma xenografts; assay: Antitumor activity in SCID mice bearing OCI-Ly10 human lymphoma xenografts, bendamustine and rituximab (Example 6); assay type: in vivo, mouse; conditions: Day 21; Compound A 30 mg/kg PO QD x21; bendamustine 1 mg/kg IV BIW; rituximab 1 mg/kg IV QW x3; alone or combined
[3] = Day 0 to Day 21; Compound A 30 mg/kg; bendamustine 1 mg/kg; rituximab 1 mg/kg; alone or combined
[4] = Body weight and tolerability, TMD8 bendamustine study (Example 3); conditions: Compound A 60 mg/kg PO QD 14 d, alone or combined
[5] = Body weight and tolerability, Ly19 bendamustine study (Example 4); conditions: for body weight Change (%), Day 3: Day 3 vs Day 0; for body weight Change (%), Day 7: Day 7 vs Day 0; for body weight Change (%), Day 10: Day 10 vs Day 0; for body weight Change (%), Day 14: Day 14 vs Day 0
[6] = test system: OCI-Ly10 human lymphoma xenografts; assay: Antitumor activity in SCID mice bearing OCI-Ly10 human lymphoma xenografts, lenalidomide combination (Example 10); assay type: in vivo, mouse; conditions: alone or combined
[7] = Day 0 to Day 21; Compound A 60 mg/kg; lenalidomide 10 mg/kg; alone or combined
[8] = Compound A 60 mg/kg PO QD x14, bendamustine 1.0 mg/kg IV BIW x2, alone or combined
[9] = bendamustine 2.0 mg/kg IV BIW x2, alone or with Compound A 60 mg/kg PO QD x14
[10] = Compound A 60 mg/kg, bendamustine 1.0 mg/kg, alone or combined
[11] = bendamustine 2.0 mg/kg, alone or with Compound A 60 mg/kg

Cn1c(CCCC(=O)O)nc2cc(N(CCCl)CCCl)ccc21 [bendamustine]
Mean Tumor Volume (mm^3) ± SEM (TMD8 DLBCL xenografts; Compound A 60 mg/kg PO QD 14 d): 1,529.2 ± 275.9 mm^3
T/C (TMD8 DLBCL xenografts; Compound A 60 mg/kg PO QD): 0.87
TGI (%) (TMD8 DLBCL xenografts; Compound A 60 mg/kg PO QD): 13.4%
Mean Tumor Volume (mm^3) ± SEM at Day 14 (Ly19 xenografts; [8]): 2092.9 ± 175.8 mm^3
TGI (%) (Ly19 xenografts; [8]): 16.2%
Mean Tumor Volume (mm^3) ± SEM at Day 14 (Ly19 xenografts; [9]): 2029.8 ± 248.8 mm^3
TGI (%) (Ly19 xenografts; [9]): 18.7%
dAUC (Ly19 xenografts; [10]): 10.9
dAUC (Ly19 xenografts; [11]): 11.9
TGI [1]: 43.7%
TGI ([1]; listed as Bendamustine): 43.7%
TGI [2]: 49.7%
Maximum mean % BWL [3]: 0%
% BW Change (Day Maximum) ([4]; bendamustine 1 mg/kg IV BIW 14 d, maximum change within treatment period): 13.1 (14) %
Number of animals removed ([4]; bendamustine 1 mg/kg IV BIW): 0
animal body weight (g), Day 0 ([5]; Day 0, Compound A 60 mg/kg PO QD x14, bendamustine 1.0 mg/kg IV BIW x2, alone or combined, mean of 8): 19.7 g
animal body weight (g), Day 3 ([5]; Day 3, Compound A 60 mg/kg, bendamustine 1.0 mg/kg, alone or combined): 19.9 g
body weight Change (%), Day 3 [5, 10]: +0.9%
body weight Change (%), Day 3 [5, 11]: +2.0%
body weight Change (%), Day 7 [5, 10]: +3.7%
body weight Change (%), Day 7 [5, 11]: +3.2%
animal body weight (g), Day 10 [5, 10]: 21.2 g
animal body weight (g), Day 10 [5, 11]: 21.7 g
body weight Change (%), Day 10 [5, 10]: +7.7%
body weight Change (%), Day 10 [5, 11]: +6.2%
animal body weight (g), Day 14 [5, 10]: 22.3 g
animal body weight (g), Day 14 [5, 11]: 22.6 g
body weight Change (%), Day 14 [5, 10]: +13.1%
body weight Change (%), Day 14 [5, 11]: +10.8%

Nc1cccc2c1CN(C1CCC(=O)NC1=O)C2=O (centres unmarked) [lenalidomide]
TGI ([6]; Day 21, Compound A 60 mg/kg PO QD x21, lenalidomide 10 mg/kg PO QD x21): 21.1%
ΔAUC ([6]; vs vehicle, Compound A 60 mg/kg, lenalidomide 10 mg/kg): 15.2 (p = 0.014)
Mean maximum % BWL [7]: 0%

Source: US20190231757A1, “COMBINATION OF SPLEEN TYROSINE KINASE INHIBITORS AND OTHER THERAPEUTIC AGENTS” (Takeda Pharmaceutical Company Limited, priority 2016, published 2019)
